Source: US12037306B2, “Methods of treating neurofibromatosis type 1 with N-((R))-2,3-dihydroxypropoxy)-3,4-difluoro-2-(2-fluoro-4-iodophenylamino)-benzamide” (Warner-Lambert Company LLC, priority 2021, dated 2024)

Assay: Form IV stability by XRPD comparison to a reference standard after storage
Assay type: physicochemical
Conditions: stored at 25° C. and 65% relative humidity
Method: In some aspects, the XRPD pattern is generated using a PANALYTICAL® X'Pert Pro diffractometer using Ni-filtered Cu Kα (45 kV/40 mA) radiation and a step size of 0.03° 2θ with a X'CELERATOR® Real Time Multi-Strip detector, configured (a) on the incidental beam side as follows: variable divergence slits (10 mm irradiated length), 0.04 rad Soller slits, fixed anti-scatter slit (0.50°), and 10 mm beam mask, and (b) on the diffracted beam side as follows: variable anti-scatter slit (10 mm observed length) and 0.04 rad Soller slit or a BRUKER® D8® ADVANCE™ system using Cu Kα (40 kV/40 mA) radiation and a step size of 0.03° 2θ with a LYNXEYE™ detector, configured (a) on the incidental beam side as follows: Göebel mirror, mirror exit slit (0.2 mm), 2.5° Soller slit, beam knife, and (b) on the diffracted beam side as follows: anti-scatter slit (8 mm) and 2.5° Soller slit, wherein samples are mounted flat on zero-background Si wafers. In some aspects, the DSC pattern is generated using a TA Instruments Q100 or Q2000 differential scanning calorimeter at a rate of temperature increase of about 15° C./min.
Stability of Form IV material was determined by comparing the XRPD spectrum of a batch to a reference standard XRPD spectrum. This analysis was performed at batch release, and the XRPD spectrum obtained corresponded to that of the reference standard of Form IV (FIG. 2). […]

- Changes in the XRPD spectrum over time (stability of Form IV) (XRPD at 68 months (FIG. 3A)): Undetectable changes
- Changes in the XRPD spectrum over time (stability of Form IV) (XRPD at 140 months (FIG. 3B)): Undetectable changes
SMILES: O=C(NOC[C@H](O)CO)c1ccc(F)c(F)c1Nc1ccc(I)cc1F [Form IV, N—((R)-2,3-dihydroxypropoxy)-3,4-difluoro-2-(2-fluoro-4-iodo-phenylamino)-benzamide]
